# Measurements as given in the Kinase Knowledgebase extract (Sharma et al. 2016).
# Target: MAPK14 (human) (UniProt Q16539)
# Test: Assessment of MAPK14 Kinase Activity
# Sequence of MAPK14 (human) (Q16539 whole entry, looked up): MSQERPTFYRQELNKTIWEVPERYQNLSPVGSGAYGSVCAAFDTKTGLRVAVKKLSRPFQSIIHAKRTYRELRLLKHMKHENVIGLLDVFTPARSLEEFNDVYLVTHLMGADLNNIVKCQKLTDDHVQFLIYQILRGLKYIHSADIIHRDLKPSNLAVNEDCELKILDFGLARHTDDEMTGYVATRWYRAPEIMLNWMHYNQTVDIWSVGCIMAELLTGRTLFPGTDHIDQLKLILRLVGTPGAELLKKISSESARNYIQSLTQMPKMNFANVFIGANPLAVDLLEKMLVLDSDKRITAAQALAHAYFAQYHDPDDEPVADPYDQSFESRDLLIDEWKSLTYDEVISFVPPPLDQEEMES
row,IC50,SMILES
1,≤ 1 µM,CCOC(=O)c1sc2c(ccc(=O)n2-c2ccccc2)c1CCc1ccccc1
2,≤ 1 µM,CCOC(=O)c1sc2c(ccc(=O)n2-c2ccccc2)c1NCc1c(F)cccc1F
3,≤ 1 µM,N#Cc1sc2c(ccc(=O)n2-c2ccccc2)c1C(O)c1ccccc1 (centres undefined)
4,≤ 1 µM,NC(=O)c1sc2c(ccc(=O)n2-c2ccccc2)c1Sc1ccccc1
5,≤ 1 µM,CCOC(=O)c1sc2c(ccc(=O)n2-c2ccccc2)c1NC(=O)c1ccc(N)cc1
6,≤ 1 µM,CCOC(=O)c1sc2c(ccc(=O)n2-c2ccccc2)c1C(O)c1cccc(C)c1 (centres undefined)
7,≤ 1 µM,CCOC(=O)c1sc2c(ccc(=O)n2-c2ccccc2)c1C(O)c1cccc(Cl)c1 (centres undefined)
8,≤ 1 µM,CCOC(=O)c1sc2c(ccc(=O)n2-c2ccccc2)c1C(O)c1cccc(C)n1 (centres undefined)
9,≤ 1 µM,CCOC(=O)c1sc2c(ccc(=O)n2-c2ccccc2)c1NCc1ccccn1
10,≤ 1 µM,CCOC(=O)c1sc2c(ccc(=O)n2-c2ccccc2)c1C(O)c1ccccc1 (centres undefined)
11,≤ 1 µM,CCOC(=O)c1sc2c(ccc(=O)n2-c2ccccc2)c1Oc1ccccc1
12,≤ 1 µM,CCOC(=O)c1sc2c(ccc(=O)n2-c2ccccc2)c1NC(C)c1ccccc1 (centres undefined)
13,≤ 1 µM,CCOC(=O)c1sc2c(ccc(=O)n2-c2ccccc2)c1NS(=O)(=O)c1ccccc1
14,≤ 1 µM,CCOC(=O)c1sc2c(ccc(=O)n2CC2CC2)c1C(O)c1ccccc1 (centres undefined)
15,≤ 1 µM,CCOC(=O)c1sc2c(ccc(=O)n2-c2ccccc2)c1Sc1ccccc1
16,≤ 1 µM,CCOC(=O)c1sc2c(ccc(=O)n2-c2ccccc2)c1S(=O)(=O)Nc1ccccc1
17,≤ 1 µM,CCOC(=O)c1sc2c(ccc(=O)n2-c2ccccc2)c1Sc1cccc(C)c1
18,≤ 1 µM,CCOC(=O)c1sc2c(ccc(=O)n2-c2ccccc2)c1NCc1ccccc1
19,≤ 1 µM,N#Cc1sc2c(ccc(=O)n2-c2ccccc2)c1NCc1ccccc1
20,≤ 1 µM,CCOC(=O)c1sc2c(ccc(=O)n2-c2ccccc2)c1Cc1ccccc1
21,≤ 1 µM,CCOC(=O)c1sc2c(ccc(=O)n2-c2ccccc2)c1NNc1ccc(C)cc1
22,≤ 1 µM,Cc1cccc(C(O)c2c(C#N)sc3c2ccc(=O)n3-c2ccccc2)c1 (centres undefined)
23,≤ 1 µM,CCOC(=O)c1sc2c(ccc(=O)n2-c2ccccc2)c1N(C)Cc1ccccc1
24,≤ 1 µM,CCOC(=O)c1sc2c(ccc(=O)n2-c2ccccc2)c1NC(=O)c1ccccc1
